Measured values from patent US6825165B1, “Betacellulin modification” (Takeda Chemical Industries, Ltd., priority 1998, dated 2004).
No end group written: not given here.

Tests used:
[1] = tested on: 3T3 A31-714 Clone 4 cells; assay: Cell growth promoting activity using 3T3 cells (3H-thymidine uptake), Example 25; type: cell-based, mouse; settings: 3H-thymidine uptake into 3T3 A31-714 Clone 4; 100% is the maximum uptake of the 80-residue betacellulin
Description: The cell growth promoting activity was assayed by means of the ^3H-thymidine uptake into stationary 3T3 A31-714 Clone 4 (International Journal of Cancer, 12:463 (1973)) as described in Molecular Cell Biology, 8:588 (1988).
100 μL 3T3 A31-714 Clone 4 suspended to 1000 cells/mL using Dulbecco's modified Eagle MEM medium containing 5% bovine serum were seeded to 96 well plates and cultured for a day at 37° C. in carbon dioxide gas incubators (5% carbon dioxide gas, 95% air). 75 μL of supernatant was taken, and 100 μL of serum-free Dulbecco's modified Eagle MEM medium was added to adjust the serum concentration to 1%. Two more days of culture was followed by the addition of varying concentrations of the hBTC50, Mutein A, or Mutein B prepared in the above examples. 16 hours after these had been added, ^3H-thymidine (Amersham Pharmacia Biotech) was added in an amount of 0.25 μCi/well, after 4 hours the cells were washed 3 times with PBS, 100 μL of 5% SDS was added, and the cells were lysed. The cell lysate was transferred to scintillation vials, 1 mL of Scintillator A (Wako Pure Chemicals) was added, and the uptake of ^3H-thymidine into the cellwas assayed with a scintillation counter.

AR42J cells = assay: β cell differentiation promoting activity using AR42J cells (anti-insulin immunofluorescence), Example 26; type: cell-based; settings: 5 days incubation; for Differentiation into insulin-producing β cells (stained cells under fluorescent microscope): anti-insulin antibody/FITC staining; for Incidence of insulin-producing cells: comparison between the proteins
Description: Cells of the AR42J cell line derived from pancreatic cancer induced by chemical carcinogens (Christophe, Am. J. Physiol., 266: G963 (1994)) were suspended to a concentration of 10^5 cells/mL in Dulbecco's modified Eagle MEM medium containing 10% fetal calf serum and one of hBTC50, Mutein A, Mutein B, or the 80-residue betacellulin (hBTC80) prepared in accordance with the method in Japanese Unexamined Patent Application (Kokai) H10-191989. 500 μL of these suspensions was inoculated on chamber slides and incubated for 5 days at 37° C. in carbon dioxide gas incubators (5% carbon dioxide gas, 95% air). After 5 days, the cells were washed once with PBS, fixed in 10% formaldehyde, and treated for 5 min with 0.1% Triton X-100. Block Ace (Snow Brand, Japan) was then added for 40 minutes of blocking at room temperature. Anti-insulin antibodies (by Advanced Immunochemicals) diluted with 10% Block Ace were added, and reacted for 40 minutes at room temperature. 0.1% Triton X-100 was added, the reaction solution was allowed to stand for 5 minutes at room temperature, and the cells were then washed three times with PBS. FITC (fluorescein isothiocyanate) labeled anti-mouse IgG antibodies (Cappel) diluted with 10% Block Ace were added, and a reaction was brought about for 40 minutes. 0.1% Triton X-100 was added, the reaction solution was allowed to stand for 5 minutes, the cells were then washed three times with PBS, and they were then observed under a fluorescent microscope.

[2] = tested on: PLAP expression AR42J cells; assay: β cell differentiation promoting activity using PLAP expression AR42J cells (AR71-104 clone), Example 27; type: cell-based; settings: 5 days, A405, 100% is the maximum absorbance when hBTC50 was added
Description: The differentiation promoting activity into β cells was also determined using AR42J cells transformed with the vector having alkaline phosphatase which had been ligated as a reporter downstream of the insulin promoter. Specifically, cells which have differentiated into β cells by addition of betacellulin produce alkaline phosphatase. As a result, by assaying the alkaline phosphatase activity, the differentiation promoting activity into β cells can be quantitatively assayed.
Cells of each clone were seeded on 24-well plates and cultured for 4 days with and without the addition of 20 ng/mL 80-residue BTC, the supernatant was collected and heat treated for 30 minutes at 65° C., and the alkaline phosphatase activity in the media was then assayed. Clones showing increased alkaline phosphatase activity with the addition of 80-residue betacellulin were selected. The AR71-104 clone was used below.
PLAP expression AR42J cells constructed in 3-2) were suspended to a concentration of 3×10^4 cells/mL in Dulbecco's modified Eagle MEM medium containing 10% fetal calf serum and on of varying concentrations of the hBTC50 or Mutein A or B prepared above. […] The samples were held for 10 minutes at 37° C., and 10 μL of 20 mg/mL p-nitrophenylphosphoric acid (Sigma) was added, a reaction was brought about for 16 hours at 37° C., and the absorbance at 405 nm (A405) was determined.

Row | Substance | cell growth promoting activity ED50 [1] [nM] | Differentiation into insulin-producing β cells (stained cells under fluorescent microscope) (AR42J cells) | Incidence of insulin-producing cells (AR42J cells) | activity inducing differentiation to β cells ED50 [2] [nM]
1 | Mutein A: hBTC50 with 3 amino acids (Asn, Pro, Ser) of the heregulin sequence inserted between Cys3-Cys4; SEQ ID NO: 44 (RKGHFSRCPKQYKHYCIKGRCRFVVAEQNPSTPSCVCDEGYIGARCERVDLFY; ends and bridges not checked; cysteine pairing not given here) | 0.6 | cells which had differentiated into insulin-producing β cells, were found | no differences in the incidence of insulin-producing cells | 0.5
2 | Mutein B: hBTC50 in which seven N terminal residues were substituted with five corresponding EGF residues; SEQ ID NO: 45 (NSDSECPKQYKHYCIKGRCRFVVAEQTPSCVCDEGYIGARCERVDLFY; ends and bridges not checked; cysteine pairing not given here) | >10.0 | cells which had differentiated into insulin-producing β cells, were found | no differences in the incidence of insulin-producing cells | 0.7
